Measurements reported in ChEMBL document CHEMBL5154787 (J Med Chem, 2022).

Target: T1, Homeodomain-interacting protein kinase 4 (Homo sapiens, UniProt Q8NE63)
T1 sequence (Q8NE63 whole entry): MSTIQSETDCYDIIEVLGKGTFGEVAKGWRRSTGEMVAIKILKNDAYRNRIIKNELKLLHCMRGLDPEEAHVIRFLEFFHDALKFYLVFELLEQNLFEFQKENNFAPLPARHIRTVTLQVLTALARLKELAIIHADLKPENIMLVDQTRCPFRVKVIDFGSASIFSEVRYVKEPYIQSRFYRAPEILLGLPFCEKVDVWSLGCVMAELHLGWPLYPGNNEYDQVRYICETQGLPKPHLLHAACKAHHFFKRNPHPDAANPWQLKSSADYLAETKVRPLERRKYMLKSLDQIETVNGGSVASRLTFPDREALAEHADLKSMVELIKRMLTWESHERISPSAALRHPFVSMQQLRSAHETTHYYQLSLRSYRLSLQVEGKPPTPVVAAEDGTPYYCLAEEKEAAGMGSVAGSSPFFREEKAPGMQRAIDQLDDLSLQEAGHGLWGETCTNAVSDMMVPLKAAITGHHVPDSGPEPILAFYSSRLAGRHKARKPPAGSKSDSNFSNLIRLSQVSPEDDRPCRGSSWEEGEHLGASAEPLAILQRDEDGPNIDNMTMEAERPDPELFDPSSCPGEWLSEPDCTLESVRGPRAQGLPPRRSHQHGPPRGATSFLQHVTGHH
Assay: Inhibition of HIPK4 (unknown origin)

**Q.** Which IC50 does the source give for `COC(=O)Nc1cc(-c2cnc(OC[C@@](C)(N)CC(C)C)c(C)c2)ccn1` here?
**A.** Its IC50 is 1800 nM.
